Where no end group is shown, it is not given here.
Experiments:
cartilage = settings: cited from earlier work
[1] = tested on: animal epiphyseal cartilage, rabbit and human cartilage; settings: in vitro; cited from earlier work
[2] = tested on: urinary collagen type II degradation products (CTX-II); test: 3-month oral sCT treatment, 24 hours urinary CTX-II corrected for creatinine; type: in vivo, human
Method: (§1) Women receive treatment with either daily (0.15, 0.4, 1.0, or 2.5 mg) orally dosed sCT (see below for pharmaceutical compositions) combined with eligen technology-based carrier molecule (200 mg), or placebo for 3 months. All participants receive a calcium supplement of 1000 mg plus 400 IU of vitamin D daily throughout the study. Efficacy parameters are 24 hours urinary C-terminal telopeptide of collagen type I (CTX-I) and CTX-II corrected for creatinine excretion assessed at baseline and after 3-month therapy.
(§2) C-telopeptide of type I collagen (CTX I) is considered to be a specific marker sensitive to bone resorption; conversely, type II collagen C-telopeptide (CTX-II) is considered to be a useful cartilage marker.

[3] = tested on: urinary C-terminal telopeptide of collagen type I (CTX-I); test: 3-month oral sCT treatment, 24 hours urinary CTX-I corrected for creatinine; type: in vivo, human; settings: 1.0 mg sCT daily oral, 3-month treatment, compared to placebo group, p<0.001
Method: as §1, §2

[4] = Water solubility of delivery agent
[5] = in vivo

For “calcitonin (CGNLSTCMLGTYTQDFNKFHTFPQTAIGVGAP; ends and bridges not checked; cysteine pairing not given here; UniProt P01258 85-116, looked up) [origin not specified in cited studies]”, the effect on cartilage (cartilage; another menisectomy model (Colombo 1983)) is given as “no effect on cartilage”, the “effect on cartilage destruction” value (cartilage; rabbits treated with steroids, partial menisectomy or joint immobilization (Badurski 1991)) is given as “prevent cartilage destruction” and the “effect on proteoglycan and collagen synthesis in cartilage” value [1] is given as “stimulate proteoglycan and collagen synthesis”.

With salmon calcitonin [sCT] the “decrease in urinary CTX-II after 3-month treatment” value (from here on “decrease in urinary CTX-II”) ([2]; 0.4 mg sCT daily oral, postmenopausal women, compared to placebo, p=0.04) was −15.2%, the “decrease in urinary CTX-II” value ([2]; 1.0 mg sCT daily oral, postmenopausal women, compared to placebo, p=0.009) was −19.7% and the “decrease in urinary CTX-II” value ([2]; 1.0 mg sCT, women in the highest tertile of baseline urinary CTX-II) was −36.6%. The “decrease in urinary CTX-II” value ([2]; 1.0 mg sCT, women in the lowest tertile of baseline urinary CTX-II) was −9.9%, the “decrease in urinary CTX-II” value ([2]; 2.5 mg sCT daily oral, postmenopausal women, compared to placebo, p=0.02) was −17.5% and the “24 hours urinary CTX-II response to oral sCT, dose relationship” value ([2]; 0.15, 0.4, 1.0, 2.5 mg daily, 3 months, ANOVA=0.012) was “clear and significant dose dependent relationship”. The “reduction in 24-hours urinary CTX-I” value [3] was −41.0%.

In the case of `O=C(O)CCCCCCCNC(=O)c1cc(Cl)ccc1O` [5 CNAC, N-(5-chlorosalicyloyl)-8-aminocaprylic acid], the water solubility [4] is reported as “very water soluble”.

With `O=C(O)CCCCCCCCCNC(=O)c1ccccc1O` [SNAD, N-(10-[2-hydroxybenzoyl]amino)decanoic acid] the “absorbed by the gastro-intestinal tract” value [5] was “more than 90%”.

— US8765675B2, “Use of calcitonin in osteoarthritis” (Novartis AG, priority 2003, dated 2014)
